Experimental data reported in PubChem BioAssay AID1963825 (Molecular Pharmacology Branch, DTP, NCI, 2024).

Assay: Anticancer human tumor 997537-175-T-J1-PDC patient-derived colon adenocarcinoma cell line growth inhibition [POLQ]
Conditions: 997537-175-T-J1-PDC complex spheroid viability, combination with POLQ inhibitors; for IC50: curve of first compound; for viability, T/C: stronger effect = lower value
In short: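 Three-cell-type spheroids modelling solid tumor plus stroma served as the readout system; POL inhibitors were tested individually and in combination, concentration ranges set by clinical Cmax where known.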

[1] = second compound 0.0316 µM, first compound 0.0316 µM
[2] = second compound 0.0316 µM, first compound 0.1 µM
[3] = second compound 0.0316 µM, first compound 0.316 µM
[4] = second compound 0.0316 µM, first compound 1 µM
[5] = second compound 0.0316 µM, first compound 3.16 µM
[6] = second compound 0.0316 µM, first compound 10 µM
[7] = second compound 0.1 µM, first compound 0.0316 µM
[8] = second compound 0.1 µM, first compound 0.1 µM
[9] = second compound 0.1 µM, first compound 0.316 µM
[10] = second compound 0.1 µM, first compound 1 µM
[11] = second compound 0.1 µM, first compound 3.16 µM
[12] = second compound 0.1 µM, first compound 10 µM
[13] = second compound 0.316 µM, first compound 0.0316 µM
[14] = second compound 0.316 µM, first compound 0.1 µM
[15] = second compound 0.316 µM, first compound 0.316 µM
[16] = second compound 0.316 µM, first compound 1 µM
[17] = second compound 0.316 µM, first compound 3.16 µM
[18] = second compound 0.316 µM, first compound 10 µM
[19] = second compound 1 µM, first compound 0.0316 µM
[20] = second compound 1 µM, first compound 0.1 µM
[21] = second compound 1 µM, first compound 0.316 µM
[22] = second compound 1 µM, first compound 1 µM
[23] = second compound 1 µM, first compound 3.16 µM
[24] = second compound 1 µM, first compound 10 µM
[25] = second compound 3.16 µM, first compound 0.0316 µM
[26] = second compound 3.16 µM, first compound 0.1 µM
[27] = second compound 3.16 µM, first compound 0.316 µM
[28] = second compound 3.16 µM, first compound 1 µM
[29] = second compound 3.16 µM, first compound 3.16 µM
[30] = second compound 3.16 µM, first compound 10 µM
[31] = second compound 10 µM, first compound 0.0316 µM
[32] = second compound 10 µM, first compound 0.1 µM
[33] = second compound 10 µM, first compound 0.316 µM
[34] = second compound 10 µM, first compound 1 µM
[35] = second compound 10 µM, first compound 3.16 µM
[36] = second compound 10 µM, first compound 10 µM
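Also: luminescence signal used as a surrogate for viable cells; spheroids exposed to drugs for seven days before readout.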

SMILES: C#Cc1c(F)ccc2cc(O)cc(-c3ncc4c(N5CC6CCC(C5)N6)nc(OCC56CCCN5CC(F)C6)nc4c3F)c12 (stereo unspecified) + Cc1cccc(N(C)C(=O)C2C(O)CCN2c2nc(C)cc(C(F)(F)F)c2C#N)c1
- IC50 (second compound 0.0316 µM): > 10 µM
- IC50 (second compound 0.1 µM): > 10 µM
- IC50 (second compound 0.316 µM): > 10 µM
- IC50 (second compound 1 µM): > 10 µM
- IC50 (second compound 3.16 µM): > 10 µM
- IC50 (second compound 10 µM): > 10 µM
- viability, T/C [1]: 95.2%
- viability, T/C [2]: 106%
- viability, T/C [3]: 89.2%
- viability, T/C [4]: 107%
- viability, T/C [5]: 108%
- viability, T/C [6]: 109%
- viability, T/C [7]: 99.2%
- viability, T/C [8]: 102%
- viability, T/C [9]: 98.2%
- viability, T/C [10]: 104%
- viability, T/C [11]: 104%
- viability, T/C [12]: 108%
- viability, T/C [13]: 106%
- viability, T/C [14]: 106%
- viability, T/C [15]: 91.6%
- viability, T/C [16]: 91.7%
- viability, T/C [17]: 121%
- viability, T/C [18]: 105%
- viability, T/C [19]: 109%
- viability, T/C [20]: 107%
- viability, T/C [21]: 111%
- viability, T/C [22]: 100%
- viability, T/C [23]: 98.5%
- viability, T/C [24]: 102%
- viability, T/C [25]: 106%
- viability, T/C [26]: 83.5%
- viability, T/C [27]: 101%
- viability, T/C [28]: 112%
- viability, T/C [29]: 101%
- viability, T/C [30]: 104%
- viability, T/C [31]: 99.8%
- viability, T/C [32]: 88.6%
- viability, T/C [33]: 101%
- viability, T/C [34]: 119%
- viability, T/C [35]: 94.1%
- viability, T/C [36]: 89%

SMILES: COc1cc2cc(C(=O)CCC(=O)O)sc2cc1OC + Cc1cccc(N(C)C(=O)C2C(O)CCN2c2nc(C)cc(C(F)(F)F)c2C#N)c1
- IC50 (second compound 0.0316 µM): > 10 µM
- IC50 (second compound 0.1 µM): > 10 µM
- IC50 (second compound 0.316 µM): > 10 µM
- IC50 (second compound 1 µM): > 10 µM
- IC50 (second compound 3.16 µM): > 10 µM
- IC50 (second compound 10 µM): > 10 µM
- viability, T/C [1]: 110%
- viability, T/C [2]: 102%
- viability, T/C [3]: 99.3%
- viability, T/C [4]: 111%
- viability, T/C [5]: 98.4%
- viability, T/C [6]: 88.3%
- viability, T/C [7]: 98.7%
- viability, T/C [8]: 120%
- viability, T/C [9]: 94.7%
- viability, T/C [10]: 105%
- viability, T/C [11]: 99.3%
- viability, T/C [12]: 93.3%
- viability, T/C [13]: 105%
- viability, T/C [14]: 97.7%
- viability, T/C [15]: 87.5%
- viability, T/C [16]: 80.8%
- viability, T/C [17]: 98.6%
- viability, T/C [18]: 93.6%
- viability, T/C [19]: 108%
- viability, T/C [20]: 90.5%
- viability, T/C [21]: 105%
- viability, T/C [22]: 102%
- viability, T/C [23]: 101%
- viability, T/C [24]: 92.8%
- viability, T/C [25]: 94.5%
- viability, T/C [26]: 121%
- viability, T/C [27]: 90.5%
- viability, T/C [28]: 96.2%
- viability, T/C [29]: 115%
- viability, T/C [30]: 97.8%
- viability, T/C [31]: 98%
- viability, T/C [32]: 104%
- viability, T/C [33]: 107%
- viability, T/C [34]: 105%
- viability, T/C [35]: 118%
- viability, T/C [36]: 87.3%

SMILES: O=C(Nc1ccc(O)c(NS(=O)(=O)c2ccc(F)cc2)c1)c1ccc(-c2ccccc2)cc1 + Cc1cccc(N(C)C(=O)C2C(O)CCN2c2nc(C)cc(C(F)(F)F)c2C#N)c1
- IC50 (second compound 0.0316 µM): > 10 µM
- IC50 (second compound 0.1 µM): > 10 µM
- IC50 (second compound 0.316 µM): > 10 µM
- IC50 (second compound 1 µM): > 10 µM
- IC50 (second compound 3.16 µM): > 10 µM
- IC50 (second compound 10 µM): > 10 µM
- viability, T/C [1]: 105%
- viability, T/C [2]: 105%
- viability, T/C [3]: 99.4%
- viability, T/C [4]: 100%
- viability, T/C [5]: 101%
- viability, T/C [6]: 72.7%
- viability, T/C [7]: 107%
- viability, T/C [8]: 99.4%
- viability, T/C [9]: 93.9%
- viability, T/C [10]: 103%
- viability, T/C [11]: 91%
- viability, T/C [12]: 98.1%
- viability, T/C [13]: 105%
- viability, T/C [14]: 91.9%
- viability, T/C [15]: 111%
- viability, T/C [16]: 103%
- viability, T/C [17]: 97.5%
- viability, T/C [18]: 92.5%
- viability, T/C [19]: 93.7%
- viability, T/C [20]: 84.4%
- viability, T/C [21]: 94.9%
- viability, T/C [22]: 87.3%
- viability, T/C [23]: 111%
- viability, T/C [24]: 98.6%
- viability, T/C [25]: 97.2%
- viability, T/C [26]: 106%
- viability, T/C [27]: 93%
- viability, T/C [28]: 80.6%
- viability, T/C [29]: 106%
- viability, T/C [30]: 91.7%
- viability, T/C [31]: 96.8%
- viability, T/C [32]: 101%
- viability, T/C [33]: 108%
- viability, T/C [34]: 93%
- viability, T/C [35]: 89.5%
- viability, T/C [36]: 105%
